Values of other authors as cited in patent US20200101019A1, “USE OF LIPOSOMES FOR TREATMENT OF CHRONIC VIRAL HEPATITIS B” (JIANGSU MENDEL GENE TECHNOLOGY CO., LTD, priority 2017, published 2020).

System: Hepatitis B virus (HBV)
Conditions: AASLD Guidelines for Treatment of Chronic Hepatitis B, Hepatology 2016

| Structure (SMILES) | HBeAg/anti-HBe seroconversion rate after treatment with other drugs |
| --- | --- |
| Nc1ncnc2c1ncn2CCOCP(=O)(O)O [Adefovir] | 12% |
| C=C1[C@H](CO)[C@@H](O)C[C@@H]1n1cnc2c(=O)[nH]c(N)nc21 [Entecavir] | 21% |
